Assay results taken from the OPERA property sets (Mansouri et al. 2018).
In brackets after ≈: the same amount, converted by molar mass.

settings: 20 °C

Structure (SMILES) | solubility
CCCCOC(=O)CCCCCCCCC(=O)OCCCC | 0.127 mM (≈ 40 µg/mL)
C=C(C)C(=O)O | 1030 mM (≈ 89000 µg/mL)
C=COCCCC | 30 mM (≈ 3000 µg/mL)
C=COC(C)=O | 232 mM (≈ 20000 µg/mL)
COC(=O)c1ccccc1 | 15.4 mM (≈ 2100 µg/mL)
CCCCCCCCC(=O)O | 1.79 mM (≈ 284 µg/mL)
CCCCCOC(C)=O | 13.2 mM (≈ 1710 µg/mL)

Other lines, results leading:

solubility | Structure (SMILES)
0.673 mM (≈ 100 µg/mL) | CCCCC(CC)CCl (stereo not drawn)
47.3 mM (≈ 5500 µg/mL) | CCCC(=O)OCC
19.3 mM (≈ 2500 µg/mL) | CCCCC(CC)CN (stereo not drawn)
6.62 mM (≈ 597 µg/mL) | CCCCS
9.01 mM (≈ 1300 µg/mL) | CC(=O)OC(C)CC(C)C (stereo not drawn)
18.5 mM (≈ 2410 µg/mL) | CCOC(=O)CC(C)C

same assay, conditions: 25 °C

Structure (SMILES) | solubility
CC(=O)OCC(COC(C)=O)OC(C)=O | 266 mM (≈ 58000 µg/mL)
CCCCCCCCC | 0.00172 mM (≈ 0.22 µg/mL)
CC[Si](CC)(CC)CC | 0.00225 mM (≈ 0.325 µg/mL)
FC(F)(F)Cl | 0.862 mM (≈ 90 µg/mL)
CCCCOC(=O)/C=C\C(=O)OCCCC | 2.19 mM (≈ 500 µg/mL)
CCOCC | 815 mM (≈ 60400 µg/mL)
CCC[N+](=O)[O-] | 168 mM (≈ 15000 µg/mL)
CC1CCCO1 (stereo not drawn) | 1810 mM (≈ 156000 µg/mL)
FC(F)(Cl)C(F)(F)Cl | 0.761 mM (≈ 130 µg/mL)
CCCCCl | 11.9 mM (≈ 1100 µg/mL)
CCCCCC(C)=O | 37.7 mM (≈ 4300 µg/mL)
COC(=O)/C=C\C(=O)OC | 555 mM (≈ 80000 µg/mL)
CCCCOCCCC | 2.3 mM (≈ 300 µg/mL)
N#Cc1ccccc1 | 19.4 mM (≈ 2000 µg/mL)
FC(Cl)(Cl)C(F)(Cl)Cl | 0.617 mM (≈ 126 µg/mL)
C=CC(=O)OC | 574 mM (≈ 49400 µg/mL)
C[Si](C)(C)C | 0.222 mM (≈ 19.6 µg/mL)

The next lines start with the values.

solubility | Structure (SMILES)
0.172 mM (≈ 14.8 µg/mL) | CCCC(C)C
48 mM (≈ 4900 µg/mL) | CCCOCCC
1.26 mM (≈ 200 µg/mL) | CC(C)CCOCCC(C)C
0.527 mM (≈ 38 µg/mL) | CCCCC
161 mM (≈ 16400 µg/mL) | CC(C)CC(C)O (stereo not drawn)
0.676 mM (≈ 48.8 µg/mL) | CCC(C)C

same assay, conditions: 30 °C

solubility | Structure (SMILES)
81.3 mM (≈ 14000 µg/mL) | CCOC(=O)/C=C\C(=O)OCC
0.161 mM (≈ 26 µg/mL) | Cc1ccc(Cl)c(Cl)c1
